Values of other authors, collected in patent publication US8993486B2, “Ultra-high throughput screening methods to detect synergistic drug interactions” (Lankenau Institute for Medical Research Chemical Genomics …, priority 2010, dated 2015).

Test system: diverse fungal pathogens

Molecule	synergy with ketoconazole (KTC) activity (checkerboard assay, diverse fungal pathogens)	fungicidal activity alone (low dosage)
beauvericin	dramatically synergized KTC activity	
CC(=O)N1CCN(c2ccc(OCC3COC(Cn4ccnc4)(c4ccc(Cl)cc4Cl)O3)cc2)CC1 (centres unmarked) [ketoconazole]		little detectable fungicidal activity
